Assay results taken from US20170280720A1, “ARGININE […] INHIBITORS AND USES THEREOF” (EPIZYME, INC., priority 2014, published 2017).

Key:
human PRMT1 = target: T1, human PRMT1 (Homo sapiens, UniProt Q99873); assay: PRMT1 biochemical assay (3H-SAM Flashplate, peptide substrate); conditions: read-out: PRMT1_ IC50
T1 construct: GST-tagged PRMT1; made in house; host or cells: High Five insect cells (baculovirus, pFastBacI)
Excerpt: S-adenosylmethionine (SAM), S-adenosylhomocysteine (SAH), bicine, Tween20, dimethylsulfoxide (DMSO), bovine skin gelatin (BSG), and Tris(2-carboxyethyl)phosphine hydrochloride solution (TCEP) were purchased from Sigma-Aldrich at the highest level of purity possible. ^3H-SAM was purchase from American Radiolabeled Chemicals with a specific activity of 80 Ci/mmol. 384-well streptavidin Flashplates were purchased from PerkinElmer.
Peptide representative of human histone H4 residues 36-50 was synthesized with an N-terminal linker-affinity tag motif and a C-terminal amide cap by 21st Century Biochemicals. The peptide was purified by high-performance liquid chromatography (HPLC) to greater than 95% purity and confirmed by liquid chromatography mass spectrometry (LC-MS). The sequence was Biot-Ahx-[…]-amide (SEQ ID NO.: 1).
Full-length human PRMT1 isoform 1 (NM_001536.5) transcript clone was amplified from an HEK 293 cDNA library, incorporating flanking 5′ sequence encoding a FLAG tag ([…]) (SEQ ID NO.: 2) fused directly to Met 1 of PRMT1. The amplified gene was subcloned into pFastBacI (Life Technologies) modified to encode an N-terminal GST tag and a TEV cleavage sequence ([…] […] […] […] QGGNS)(SEQ ID NO.: 3) fused to Asp of the Flag tag of PRMT1.
Recombinant baculovirus were generated according to Bac-to-Bac kit instructions (Life Technologies). Protein over-expression was accomplished by infecting exponentially growing High Five insect cell culture at 1.5×10^6 cell/ml with 1:100 ratio of virus. Infections were carried out at 27° C. for 48 hours, harvested by centrifugation, and stored at −80° C. for purification.
GST-tagged PRMT1 was eluted with 50 mM Tris, 2 mM glutathione, pH 7.8, dialysed in buffer A and concentrated to 1 mg/mL. The purity of recovered protein was 73%. Reference: Wasilko, D. J. and S. E. Lee: “TIPS: titerless infected-cells preservation and scale-up” Bioprocess J., 5 (2006), pp. 29-32.
General Procedure for PRMT1 Enzyme Assays on Peptide Substrates.
The assays were all performed in a buffer consisting of 20 mM Bicine (pH=7.6), 1 mM TCEP, 0.005% BSG, and 0.002% Tween 20, prepared on the day of use. Compounds in 100% DMSO (1 ul) were spotted into a polypropylene 384-well V-bottom plates (Greiner) using a Platemate Plus outfitted with a 384-channel head (Thermo Scientific). DMSO (1 ul) was added to Columns 11, 12, 23, 24, rows A-H for the maximum signal control and 1 ul of SAH, a known product and inhibitor of PRMT1, was added to columns 11, 12, 23, 24, rows I-P for the minimum signal control. A cocktail (40 ul) containing the PRMT1 enzyme was added by Multidrop Combi (Thermo-Fisher). The compounds were allowed to incubate with PRMT1 for 30 min at room temperature, then a cocktail (10 ul) containing SAM and peptide was added to initiate the reaction (final volume=51 ul). The final concentrations of the components were as follows: PRMT1 was 0.5 nM, ^3H-SAM was 200 nM, non-radiolabeled SAM was 1.5 uM, peptide was 20 nM, SAH in the minimum signal control wells was 1 mM, and the DMSO concentration was 2%. The assays were stopped by the addition of non-radiolabeled SAM (10 ul) to a final concentration of 300 uM, which dilutes the ^3H-SAM to a level where its incorporation into the peptide substrate is no longer detectable. 50 ul of the reaction in the 384-well polypropylene plate was then transferred to a 384-well Flashplate and the biotinylated peptides were allowed to bind to the streptavidin surface for at least 1 hour before being washed once with 0.1% Tween20 in a Biotek ELx405 plate washer. The plates were then read in a PerkinElmer TopCount plate reader to measure the quantity of ^3H-labeled peptide bound to the Flashplate surface, measured as disintegrations per minute (dpm) or alternatively, referred to as counts per minute (cpm).
Where dpm=disintegrations per minute, cmpd=signal in assay well, and min and max are the respective minimum and maximum signal controls. […]

PRMT5 = PRMT5 (Homo sapiens, UniProt O14744); assay: PRMT5 IC50 (Table 2; no method described); type: biochemical; conditions: read-out: PRMT5_ IC50
[1] = test system: asymmetric di-methyl PABP1 in RKO cells; assay: In Cell Western (ICW) for asymmetric di-methyl PABP1 and DNA content in RKO cells; type: cell-based; conditions: Homo sapiens, RKO, In Cell Western
In short: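 RKO cells treated with compound for 48 h at 37 °C, then fixed, methanol-permeabilized and stained for asymmetric di-methyl PABP1 (800 nm) with DRAQ5 DNA stain (700 nm). Signal ratio normalized to DMSO and 20 μM reference-compound controls. IC50 from nine 3-fold dilutions in triplicate.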

Sequence of PRMT5 (O14744 whole entry, species assumed): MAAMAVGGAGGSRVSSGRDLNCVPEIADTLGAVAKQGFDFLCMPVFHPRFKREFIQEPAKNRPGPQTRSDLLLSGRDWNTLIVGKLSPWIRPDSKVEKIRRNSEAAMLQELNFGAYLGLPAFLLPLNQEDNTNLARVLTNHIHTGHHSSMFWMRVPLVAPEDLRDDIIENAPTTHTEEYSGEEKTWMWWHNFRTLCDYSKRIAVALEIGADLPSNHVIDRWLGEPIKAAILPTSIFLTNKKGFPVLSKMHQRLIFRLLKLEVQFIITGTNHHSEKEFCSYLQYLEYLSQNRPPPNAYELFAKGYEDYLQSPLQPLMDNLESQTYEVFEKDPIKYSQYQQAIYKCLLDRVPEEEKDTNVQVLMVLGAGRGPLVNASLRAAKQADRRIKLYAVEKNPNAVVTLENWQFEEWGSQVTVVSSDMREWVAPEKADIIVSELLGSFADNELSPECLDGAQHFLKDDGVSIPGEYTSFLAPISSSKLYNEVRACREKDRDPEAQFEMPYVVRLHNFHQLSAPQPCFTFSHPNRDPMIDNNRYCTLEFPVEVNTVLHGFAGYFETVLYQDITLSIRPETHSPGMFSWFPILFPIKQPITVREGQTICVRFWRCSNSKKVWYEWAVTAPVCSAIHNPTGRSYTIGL
Sequence of PRMT5 (Q9BQA1 whole entry partner, species assumed): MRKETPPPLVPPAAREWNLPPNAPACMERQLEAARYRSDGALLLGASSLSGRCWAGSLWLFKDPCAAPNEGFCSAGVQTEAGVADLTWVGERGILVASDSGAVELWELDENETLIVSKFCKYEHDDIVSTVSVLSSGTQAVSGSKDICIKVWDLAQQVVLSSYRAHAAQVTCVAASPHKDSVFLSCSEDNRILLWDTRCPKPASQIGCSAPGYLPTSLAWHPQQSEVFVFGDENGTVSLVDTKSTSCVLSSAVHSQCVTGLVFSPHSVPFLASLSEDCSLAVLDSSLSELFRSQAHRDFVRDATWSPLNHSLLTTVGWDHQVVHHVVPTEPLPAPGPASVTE
T1 sequence (Q99873 with tags, fused parts or gaps): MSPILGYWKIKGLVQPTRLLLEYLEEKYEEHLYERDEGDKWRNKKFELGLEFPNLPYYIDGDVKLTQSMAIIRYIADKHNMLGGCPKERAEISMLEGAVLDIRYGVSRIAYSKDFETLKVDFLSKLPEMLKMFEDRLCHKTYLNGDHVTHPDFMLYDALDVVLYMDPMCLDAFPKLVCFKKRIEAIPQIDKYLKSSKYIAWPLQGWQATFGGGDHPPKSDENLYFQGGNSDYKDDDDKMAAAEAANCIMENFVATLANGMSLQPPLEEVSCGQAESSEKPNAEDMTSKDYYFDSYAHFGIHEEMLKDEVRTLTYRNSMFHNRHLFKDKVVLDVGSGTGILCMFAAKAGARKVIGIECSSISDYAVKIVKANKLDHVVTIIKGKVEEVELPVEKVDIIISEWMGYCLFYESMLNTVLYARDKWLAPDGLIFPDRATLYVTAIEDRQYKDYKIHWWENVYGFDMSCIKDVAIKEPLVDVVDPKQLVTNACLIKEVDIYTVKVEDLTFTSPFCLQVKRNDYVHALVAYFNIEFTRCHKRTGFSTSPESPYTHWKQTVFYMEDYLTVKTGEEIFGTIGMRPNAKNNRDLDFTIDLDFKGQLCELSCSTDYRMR

SMILES	IC50 (human PRMT1)	IC50 (PRMT5)	IC50 [1]
NCCNCc1ccc(-c2ccc3nc(-c4ccc5cccnc5c4)[nH]c3c2)cc1 [Compound 77]	317 nM	258 nM	
COc1ccc(-n2cnc3ccc(-c4ccc(CNCCN)cc4)cc32)cc1 [Compound 89]	414 nM	417 nM	
NCCNCc1ccc(-c2ccc3[nH]c(=O)n(-c4ccccc4)c3c2)cc1 [Compound 91]	431 nM	502 nM	
NCCNCc1ccc(-c2ccc3ncn(-c4ccccc4)c3c2)cc1 [Compound 113]	604 nM	366 nM	
Cc1cccc(Cn2cnc3ccc(-c4ccc(CNCCN)cc4)cc32)c1 [Compound 127]	802 nM	74.5 nM	
Cc1[nH]c2ncc(-c3ccc(CNCCN)cc3)cc2c1C [Compound 140]	1090 nM	128 nM	12.5 µM
N#Cc1ccc(-n2cnc3ccc(-c4ccc(CNCCN)cc4)cc32)cc1 [Compound 149]	1530 nM	238 nM	
Cc1cc(C)c(CNC(=O)c2ccnc(-c3cccc(CN(C)CCN)c3)c2)c(=O)[nH]1 [Compound 376]	202 nM	24400 nM	

The remaining molecules from weak to strong by IC50 (human PRMT1), led by results:

IC50 (human PRMT1)	IC50 (PRMT5)	IC50 [1]	SMILES
4530 nM	250 nM		Cn1cnc2ccc(-c3ccc(CNCCN)cc3)cc21 [Compound 165]
1690 nM	316 nM		Cc1cc2cc(-c3ccc(CNCCN)cc3)cnc2[nH]1 [Compound 152]
1330 nM	129 nM		CN(C)C(=O)c1ccc(Cn2cnc3ccc(-c4ccc(CNCCN)cc4)cc32)cc1 [Compound 147]
1330 nM	173 nM		NCCNCc1ccc(-c2ccc3ncn(C4CCCC4)c3c2)cc1 [Compound 146]
430 nM	125 nM		COc1cccc(Cn2cnc3ccc(-c4ccc(CNCCN)cc4)cc32)c1 [Compound 90]
204 nM	36500 nM		CNCCNCc1ccc(-c2cncc(C(=O)NCc3c(C)cc(C)[nH]c3=O)c2)cc1 [Compound 377]
